Data taken from article PMC4503722, “Novel Phenotypic Outcomes Identified for a Public Collection of Approved Drugs from a Publicly Accessible Panel of Assays” (PLoS ONE, 2015).

Assays:
[1] = system: endothelial tube formation in co-cultures of ECFCs and ADSCs treated with VEGF; assay: cells; type: cell-based, human
NCI-H716 cells = assay: cells; type: cell-based, Human; conditions: for hNCI-H716 GLP1 Secretion IC50/EC50: assay number 12
STC-1 cell line = type: cell-based, mouse; conditions: for mSTC-1 GLP1 Secretion IC50/EC50: assay number 13
HeLa cells = assay: cells; type: cell-based; conditions: for Hela CellCycMod PI 2N IC50/EC50: assay number 14; for Hela CellCycMod PI S Phase IC50/EC50: assay number 15; for Hela CellCycMod PI 4N IC50/EC50: assay number 16; for Hela CellCycMod PI MI IC50/EC50: assay number 17; for Hela CellCycMod PI Cell Number IC50/EC50: assay number 18
DLD-1 = assay: cells; type: cell-based; conditions: for Basal_Viability ATP DLD-1 IC50/EC50: assay number 23
SW480 = assay: cells; type: cell-based; conditions: for Basal_Viability ATP SW480 IC50/EC50: assay number 24
HCT116 = assay: cells; type: cell-based; conditions: for Basal_Viability ATP HCT116 IC50/EC50: assay number 25, basal
[2] = system: HCT116 cells treated with a GSK3β inhibitor; assay: cells; type: cell-based; conditions: for GSK3b inh pretreated_Viability ATP HCT116 IC50/EC50: assay number 26, GSK3b inhibitor pretreated
Colo320 = assay: cells; type: cell-based; conditions: for Basal_Viability ATP Colo 320 IC50/EC50: assay number 27
HT-29 = assay: cells; type: cell-based; conditions: for Basal_Viability ATP HT-29 IC50/EC50: assay number 28
RKO = assay: cells; type: cell-based; conditions: for Basal_Viability ATP RKO IC50/EC50: assay number 29
SNU-C1 = assay: cells; type: cell-based; conditions: for Basal_Viability ATP SNU-C1 IC50/EC50: assay number 30
[3] = system: ECFC/ADSC co-culture cell nuclei number

SMILES	VEGF_ADSC\ECFC Angio CD31 TubeArea IC50/EC50 [1]	hNCI-H716 GLP1 Secretion IC50/EC50 (NCI-H716 cells)	mSTC-1 GLP1 Secretion IC50/EC50 (STC-1 cell line)	Hela CellCycMod PI 2N IC50/EC50 (HeLa cells)	Hela CellCycMod PI S Phase IC50/EC50 (HeLa cells)	Hela CellCycMod PI 4N IC50/EC50 (HeLa cells)	Hela CellCycMod PI MI IC50/EC50 (HeLa cells)	Hela CellCycMod PI Cell Number IC50/EC50 (HeLa cells)	Basal_Viability ATP DLD-1 IC50/EC50 (DLD-1; basal)	Basal_Viability ATP SW480 IC50/EC50 (SW480; basal)	Basal_Viability ATP HCT116 IC50/EC50 (HCT116)	GSK3b inh pretreated_Viability ATP HCT116 IC50/EC50 [2]	Basal_Viability ATP Colo 320 IC50/EC50 (Colo320; basal)	VEGF_ADSC\ECFC Angio Hoechst NucArea IC50/EC50 [3]	Basal_Viability ATP DLD-1 IC50/EC50 (DLD-1)	Basal_Viability ATP SW480 IC50/EC50 (SW480)	Basal_Viability ATP Colo 320 IC50/EC50 (Colo320)	Basal_Viability ATP HT-29 IC50/EC50 (HT-29)	Basal_Viability ATP RKO IC50/EC50 (RKO)	Basal_Viability ATP SNU-C1 IC50/EC50 (SNU-C1)	also measured
CCN(CC)CCOc1ccc(C(O)(Cc2ccc(Cl)cc2)c2ccc(C)cc2)cc1 (stereo not drawn) [NCGC00165907-03]	3.2104 µM	36.1068 µM	> 40 µM	> 10 µM	> 10 µM	> 10 µM	> 10 µM	> 10 µM	> 20 µM	3.7592 µM	> 20 µM	3.7372 µM	8.9928 µM	6.977 µM							Basal_Viability ATP HT-29 IC50/EC50 (HT-29; basal): 3.1665 µM; Basal_Viability ATP RKO IC50/EC50 (RKO; basal): 0.2987 µM; Basal_Viability ATP SNU-C1 IC50/EC50 (SNU-C1; basal): 2.4577 µM
CCCCCCCCCCCCCCCC[N+](C)(C)CC.[Br-] [NCGC00166120-02]	1.1378 µM	11.7347 µM	> 40 µM						0.7403 µM	1.2387 µM	3.1595 µM	2.6825 µM	0.0372 µM	7.579 µM							Basal_Viability ATP HT-29 IC50/EC50 (HT-29; basal): 0.4091 µM; Basal_Viability ATP RKO IC50/EC50 (RKO; basal): 0.9309 µM; Basal_Viability ATP SNU-C1 IC50/EC50 (SNU-C1; basal): 0.004 µM
Clc1ccc(CCC(Cn2ccnc2)Sc2c(Cl)cccc2Cl)cc1 (stereo not drawn) [NCGC00179596-03]	3.5313 µM	15.9807 µM	6.9953 µM								2.0642 µM	0.8414 µM		6.743 µM	1.8367 µM	1.6936 µM	0.2211 µM	3.009 µM	2.3045 µM	0.9956 µM	
Clc1ccc(C(Cn2ccnc2)OCc2c(Cl)cccc2Cl)c(Cl)c1 (stereo not drawn) [NCGC00179642-03]		> 40 µM	> 40 µM								1.5939 µM	1.3984 µM			2.3554 µM	2.6011 µM	1.8168 µM	5.0032 µM	4.0107 µM	0.8861 µM	
Cl.Oc1ccc([C@H]2CNCc3c2ccc(O)c3O)cc1O [NCGC00183049-01]		5.9462 µM	> 20 µM	> 10 µM	> 10 µM	> 10 µM	> 10 µM	> 10 µM			> 20 µM	0.1876 µM			> 20 µM	> 20 µM	0.4662 µM	> 20 µM	0.03316 µM	> 20 µM	
CN1CCN(CCCN2c3ccccc3Sc3ccc(C(F)(F)F)cc32)CC1.Cl.Cl [NCGC00186653-01]																					IC50/EC50, VEGF_ADSC\ECFC Angio CD31 TubeArea (assay number 2) [1]: > 10 µM; IC50/EC50, hNCI-H716 GLP1 Secretion (assay number 12) (NCI-H716 cells): > 40 µM; IC50/EC50, mSTC-1 GLP1 Secretion (assay number 13) (STC-1 cell line): > 40 µM; IC50/EC50, Basal_Viability ATP DLD-1 (assay number 23) (DLD-1): 7.3544 µM; IC50/EC50, Basal_Viability ATP SW480 (assay number 24) (SW480): 2.723 µM; IC50/EC50, Basal_Viability ATP HCT116 (assay number 25) (HCT116): 7.225 µM; IC50/EC50, GSK3b inh pretreated_Viability ATP HCT116 (assay number 26) [2]: 3.234 µM; IC50/EC50, Basal_Viability ATP Colo 320 (assay number 27) (Colo320): 2.3611 µM; IC50/EC50, Basal_Viability ATP HT-29 (assay number 28) (HT-29): 2.8136 µM; IC50/EC50, Basal_Viability ATP RKO (assay number 29) (RKO): 0.5653 µM; IC50/EC50, Basal_Viability ATP SNU-C1 (assay number 30) (SNU-C1): 2.6302 µM; IC50/EC50, VEGF_ADSC\ECFC Angio Hoechst NucArea (assay number 3) [3]: > 10 µM
